In ChEMBL document CHEMBL1128064, “Discovery of L-740,515, a potent thienopyridine cysLT1 receptor (LTD4 receptor) antagonist” (Bioorg Med Chem Lett, 1995):

Experiments:
[1] = target: T1, Cysteinyl leukotriene receptor 1 (Homo sapiens, UniProt Q9Y271); experiment: Inhibition of binding of [ H]-LTD4 to DMSO differentiated U937 cell membranes; set-up: species or system U-937
T1 sequence (Q9Y271 whole entry): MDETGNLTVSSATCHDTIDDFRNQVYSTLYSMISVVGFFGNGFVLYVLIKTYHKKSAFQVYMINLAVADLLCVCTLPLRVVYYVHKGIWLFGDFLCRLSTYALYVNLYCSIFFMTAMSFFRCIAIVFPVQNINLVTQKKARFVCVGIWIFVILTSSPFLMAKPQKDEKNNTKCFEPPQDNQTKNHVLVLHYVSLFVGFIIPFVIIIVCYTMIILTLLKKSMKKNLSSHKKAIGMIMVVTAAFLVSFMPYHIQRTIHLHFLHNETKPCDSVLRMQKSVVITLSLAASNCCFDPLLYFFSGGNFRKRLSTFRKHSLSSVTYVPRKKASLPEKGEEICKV

[2] = target: Cysteinyl leukotriene receptor 1 (Cavia porcellus); experiment: Inhibition of binding of [3H]LTD4 to guinea pig lung membrane
[3] = target: Cysteinyl leukotriene receptor 1 (Cavia porcellus); experiment: Inhibition of binding of [3H]LTD4 to guinea pig lung membrane supplemented with 0.05% human serum albumin(HSA)
[4] = Clearance was estimated in two squirrel monkeys after iv administration at 5 mg/kg; assay type: ADME, organism-based; set-up: dose 5 mg/kg, route intravenous; details: in vivo
[5] = Bioavailability in squirrel monkey (dose 5 mg/kg); assay type: ADME, organism-based, Saimiri sciureus; details: in vivo
[6] = Terminal half life of the compound.; assay type: ADME
[7] = Compound was tested on PMN membranes using LTD4 binding assays; assay type: functional, Homo sapiens
[8] = Compound was tested on dU937 cell membranes using LTC4 binding assays; assay type: functional, Homo sapiens

| SMILES | IC50 [1] | IC50 [2] | IC50 [3] | clearance [4] | bioavailability [5] | half-life [6] | IC50 [7] | IC50 [8] |
| --- | --- | --- | --- | --- | --- | --- | --- | --- |
| CC(C)(O)c1ccccc1CC[C@@H](SCC1(CC(=O)O)CC1)c1cccc(C2CC2c2ccc3sc(Cl)c(Cl)c3n2)c1 (some centres not stated) | 15.7 nM | 10.9 nM | 9.12 nM |  |  |  |  |  |
| O=C(O)CC1(CS[C@H](CCc2ccc(C3(O)CCC3)cc2)c2cccc(/C=C/c3ccc4sc(Cl)c(Cl)c4n3)c2)CC1 | 0.65 nM | 0.58 nM | 0.29 nM | 4.7 mL/min/kg | 15% | 2 h |  |  |
| CC(C)(O)c1ccccc1CC[C@@H](SCC1(CC(=O)O)CC1)c1cccc(OCc2ccc3sc(Cl)c(Cl)c3n2)c1 | 2.01 nM | 0.42 nM | 2.2 nM |  |  |  |  |  |
| CC(C)(O)c1ccc(CC[C@@H](SCC2(CC(=O)O)CC2)c2cccc(/C=C/c3ccc4sc(Cl)c(Cl)c4n3)c2)cc1 | 0.38 nM | 0.56 nM | 0.2 nM | 6.6 mL/min/kg | 35% |  |  |  |
| O=C(O)CC1(CS[C@H](CCc2ccc(C(F)(F)F)cc2)c2cccc(/C=C/c3ccc4sc(Cl)c(Cl)c4n3)c2)CC1 | 8.67 nM | 3.84 nM | 1.43 nM | 1.4 mL/min/kg | 4% |  |  |  |
| CC(C)(O)c1ccccc1CC[C@@H](SCC1(CC(=O)O)CC1)c1cccc(/C=C/c2ccc3sc(Cl)cc3n2)c1 |  |  |  | 1.2 mL/min/kg | 31% |  |  |  |
| CC(C)(O)c1ccccc1CC[C@@H](SCC1(CC(=O)O)CC1)c1cccc(/C=C/c2ccc3sc(F)c(F)c3n2)c1 |  |  |  | 1.61 mL/min/kg | 25% | 2.5 h |  |  |
| CC(C)(O)c1ccccc1CC[C@@H](SCC1(CC(=O)O)CC1)c1cccc(/C=C/c2ccc3scc(Cl)c3n2)c1 | 1.91 nM | 0.54 nM | 1.58 nM | 0.39 mL/min/kg | 13% |  |  |  |
| CC(C)(O)c1ccccc1CC[C@@H](SCC1(CC(=O)O)CC1)c1cccc(/C=C/c2ccc3sc(Cl)c(Cl)c3n2)c1 | 0.55 nM | 0.89 nM | 0.34 nM | 0.57 mL/min/kg | 29% | 4.2 h | > 3000 nM | > 46000 nM |
| O=C(O)CC1(CS[C@H](CCc2ccc(F)cc2)c2cccc(/C=C/c3ccc4sc(Cl)c(Cl)c4n3)c2)CC1 | 2.16 nM | 1.09 nM | 0.65 nM | 1.8 mL/min/kg | 5% |  |  |  |
| O=C(O)CC1(CS[C@H](CCc2ccccc2CO)c2cccc(/C=C/c3ccc4sc(Cl)c(Cl)c4n3)c2)CC1 | 0.72 nM | 0.48 nM | 0.48 nM | 3.5 mL/min/kg |  |  |  |  |
| O=C(O)CC1(CS[C@H](CCc2ccccc2C2(O)CCC2)c2cccc(/C=C/c3ccc4sc(Cl)c(Cl)c4n3)c2)CC1 | 1.05 nM | 0.74 nM | 0.34 nM | 1 mL/min/kg | 22% |  |  |  |
| O=C(O)CC1(CS[C@H](CCc2ccccc2Br)c2cccc(/C=C/c3ccc4sc(Cl)c(Cl)c4n3)c2)CC1 | 2.43 nM | 2.6 nM | 1.93 nM | 0.46 mL/min/kg | 3% | 8.8 h |  |  |
| O=C(O)CC1(CS[C@H](CCc2cccc(C3(O)CCC3)c2)c2cccc(/C=C/c3ccc4sc(Cl)c(Cl)c4n3)c2)CC1 | 0.47 nM | 0.44 nM | 0.24 nM | 2.6 mL/min/kg | 13% |  |  |  |

The next lines start with the values.

| IC50 [1] | IC50 [2] | IC50 [3] | clearance [4] | bioavailability [5] | half-life [6] | IC50 [7] | IC50 [8] | SMILES |
| --- | --- | --- | --- | --- | --- | --- | --- | --- |
| 1.63 nM | 0.34 nM | 0.37 nM | 1.8 mL/min/kg | 13% | 4 h |  |  | O=C(O)CC1(CS[C@H](CCc2ccccc2)c2cccc(/C=C/c3ccc4sc(Cl)c(Cl)c4n3)c2)CC1 |
| 8.49 nM | 1.31 nM | 20.4 nM |  |  |  |  |  | CC(C)(O)c1ccccc1CC[C@@H](SCC1(CC(=O)O)CC1)c1cccc(/C=C/c2ccc3sccc3n2)c1 |
| > 150 nM | > 150 nM | > 150 nM |  |  |  |  |  | CC(C)(O)c1ccccc1CC[C@@H](SCC1(CC(=O)O)CC1)c1cccc(COc2ccc3sc(Cl)c(Cl)c3n2)c1 |
| 4.7 nM | 1.95 nM | 1.03 nM | 1.6 mL/min/kg | 3% | 5.1 h |  |  | O=C(O)CC1(CS[C@H](CCc2ccc(Br)cc2)c2cccc(/C=C/c3ccc4sc(Cl)c(Cl)c4n3)c2)CC1 |
|  |  |  | 0.4 mL/min/kg | 1% | 6.1 h |  |  | O=C(O)CC1(CS[C@H](CCc2ccccc2C(F)(F)F)c2cccc(/C=C/c3ccc4sc(Cl)c(Cl)c4n3)c2)CC1 |
| 6.42 nM | 4.12 nM | 1.21 nM | 0.9 mL/min/kg | 2% | 11 h |  |  | O=C(O)CC1(CS[C@H](CCc2ccccc2C(O)(C(F)(F)F)C(F)(F)F)c2cccc(/C=C/c3ccc4sc(Cl)c(Cl)c4n3)c2)CC1 |
